For one assay, the system named is erythropoietin. The experiment in a line: Plasma EPO in mice after intravenous injection. The class given is in vivo, Swiss Webster mice. To be noted: mouse plasma, 20 mg/kg i.v., four hours after injection; for fold induction at 20 mg/kg: iv, 4 h, read-out: EPO Fold Increase; for EPO: mouse EPO ELISA kit (**). As to the method: (§1) The effect of compounds of the present invention on expression of cytoprotective and neuroprotective factors in vivo was evaluated as follows. In one series of experiments, male Swiss Webster mice (29-34 g) were administered various compounds of the present invention via intravenous injection into the caudal tail vein. Animals treated by intravenous injection received a 6 ml/kg volume of either 5% Dextrose with an equimolar amount of NaOH or Meglumine (vehicle control) or 20 mg/kg of a compound of the present invention in 5% dextrose with an equimolar amount of NaOH or Meglumine. Four hours after injection, the animals were anesthetized and exsanguinated. Plasma samples were collected in EDTA and heparin coated microtainer tubes. Plasma samples were assayed for erythropoietin and VEGF using commercially-available ELISA kits purchased from R & D Systems (Minneapolis Minn.).

In assay [1] the test system is C57BL/6 mice, permanent occlusion of the MCA. Description: Permanent middle cerebral artery occlusion (pMCAO) in C57BL/6 mice: infarct volume and edema. The class given is in vivo. To be noted: C57BL/6 mice pMCAO, 20-60 mg/kg i.v.; for inhibition in vivo at up to 20 mg/kg: Mus musculus, iv, 24 h, 24 hours after MCA occlusion, read-out: Percent Reduction in Infarct Volume. As to the method:
The effect of compounds of the present invention on infarct volume and edema associated with stroke was examined in an animal model of ischemic stroke. In these studies, mice were subjected to permanent occlusion of the middle cerebral artery. Mice were anesthetized intraperitoneally with avertin (0.5 mg/g). Mice were then immobilized in a rodent stereotaxic frame (Kopf Instruments, Tujunga Calif.) and maintained with avertin as needed. The surgical area of the head was swabbed with 70% ethanol and a lateral incision was made between the right orbit and the right ear. […] The distal course of the middle cerebral artery (MCA) was visible through the translucent skull. A small burr-hole craniotomy was performed with a micro-drill (Fine Science Tools, Foster City Calif.). The meninges/dura was removed and the MCA was coagulated by bipolar diathermy. The muscle and soft tissue were replaced and the incision closed with vet-bond adhesive (3M, St. Paul Minn.). These studies were performed in two different mouse models of pMCAO as described below.
In one series of experiments, male C57BL/6 mice (25-35 g) were subjected to permanent occlusion of the MCA as described above. Compounds of the present invention were administered by intravenous injection at various times before or after MCA occlusion (see Table 7). Animals administered compound by intravenous injection received a 6 ml/kg volume of either 5% Dextrose with an equimolar amount of Meglumine (vehicle control) or 20-60 mg/kg of a compound of the present invention in 5% dextrose with an equimolar amount of Meglumine. Body temperature of the animals was maintained by use of a heating pad both during and after surgery. Twenty-four hours after MCA occlusion animals were euthanized with CO2 and their brains removed. After removal, the brain was sliced in 7 coronal sections, each 1 mm thick. The sections were placed rostral side down in a petri dish and stained with 1% Triphenyl tetrazolium chloride for 20 minutes at 37° C. for determination of infarct volume. Brain sections were then digitally photographed and analyzed for changes in infarct volume and extent of edema. Infarct volumes were determined by measuring the infarcted (i.e., non-stained) areas of each brain section and multiplying this value by the section thickness. Extent of edema was determined by the net increase in volume of the ipsilateral cortex compared to that of the contralateral cortex of brain sections.
The effect of compounds of the present invention administered at various times following the onset of stroke was examined further as follows. In these studies, changes in infarct volume were measured using an animal model of stroke when compounds of the present invention were administered from 0 to 8 hours following permanent MCA occlusion. In one series of experiments, male C57BL/6 mice (25-35 g) were subjected to permanent occlusion of the MCA as described above. Compound F was administered to the animals by a single intravenous bolus injection at various times up to 5 hours after MCA occlusion (see Table 8 below). Animals administered compound by intravenous injection received a 6 ml/kg volume of either 5% Dextrose with an equimolar amount of NaOH (vehicle control) or 60 mg/kg of Compound F in 5% dextrose with an equimolar amount of NaOH. Body temperature of the animals was maintained by use of a heating pad both during and after surgery. Changes in infarct volumes were determined as described above.
In another set of experiments, male C57BL/6 mice (25-35 g) were subjected to permanent occlusion of the MCA as described above. Compound F was administered by single intravenous bolus injection at various times up to 8 hours after MCA occlusion (see Table 9 below). Animals administered compound by intravenous injection received a 6 ml/kg volume of either 5% Dextrose with an equimolar amount of Meglumine (vehicle control) or 60 mg/kg of Compound F in 5% dextrose with an equimolar amount of Meglumine. […]

Assay [2] deals with erythropoietin (EPO). The experiment in a line: EPO expression in Kelly neuroblastoma cells. In kind it is cell-based. To be noted: for EPO: conditioned media after overnight incubation. As for the experimental part:
(§2) The effect of compounds of the present invention on expression of cytoprotective and neuroprotective factors in neuroblastoma cells was evaluated as follows. Kelly neuroblastoma cells (see, e.g., DSMZ, cat# ACC-355, Braunschweig Germany) were treated with various compounds of the present invention or 1% DMSO (negative control). Following an overnight incubation, the conditioned media was collected from cell cultures and analyzed for erythropoietin (EPO) and vascular endothelial growth factor (VEGF) expression using a QUANTIKINE immunoassay (R&D Systems, Inc., Minneapolis Minn.) according to the manufacturer's instructions.

The test system of assay [3] is vascular endothelial growth factor (VEGF). The experiment in a line: VEGF expression in Kelly neuroblastoma cells. Conditions: for VEGF: conditioned media after overnight incubation. The class given is cell-based. As to the method:
as §2

Assay [4] concerns erythropoietin (EPO). The experiment in a line: EPO expression in Hep3B cells (QUANTIKINE immunoassay of conditioned media). In kind it is cell-based, Human. Conditions: for Fold Increase Over Control: EPO, vs 1% DMSO control; for EPO: conditioned media after overnight incubation with compound. As to the method: The effect of compounds of the present invention on expression of cytoprotective and neuroprotective factors in cells was evaluated as follows. Human cells derived from hepatocarcinoma (Hep3B) tissue (see, e.g., American Type Culture Collection, Manassas Va.) were seeded into 35 mm culture dishes and grown at 37° C., 20% O2, 5% CO2 in Minimal Essential Medium (MEM), Earle's balanced salt solution (Mediatech Inc., Herndon Va.), 2 mM L-glutamine, 0.1 mM non-essential amino acids, 1 mM sodium pyruvate, and 10% FBS. When cell layers reached confluence, the media was replaced with OPTI-MEM media (Invitrogen Life Technologies, Carlsbad Calif.) and cell layers were incubated for approximately 24 hours in 20% O2, 5% CO2 at 37° C. Various compounds of the present invention or 1% DMSO (negative control) were then added to existing media and incubation was continued overnight.
Following incubation, the conditioned media was collected from cell cultures and analyzed for erythropoietin (EPO) expression using a QUANTIKINE immunoassay (R&D Systems, Inc., Minneapolis Minn.) according to the manufacturer's instructions.

Another assay deals with VEGF. Description: Plasma VEGF in mice after intravenous injection. The class given is in vivo, Swiss Webster mice. To be noted: mouse plasma, 20 mg/kg i.v., four hours after injection; for fold induction at 20 mg/kg: iv, 4 h, read-out: VEGF Fold Increase. As to the method: as §1
[5] abbreviates: compound given 4 hr after occlusion.

Where two headings read alike, the source gives them in different places. Marks after values point to notes of the source that are not given here.

On to `O=Cc1nc(C(=O)NCC(=O)O)c(O)c2cc(Oc3ccccc3)ccc12` [Compound AK, [(1-Formyl-4-hydroxy-6-phenoxy-isoquinoline-3-carbonyl)-amino]-acetic acid], for which, in the assay on erythropoietin, the fold induction at 20 mg/kg came to 62.8 and the EPO amounted to 2763 pg/mL. Further, in assay [1] (compound given 0 hr), the “Percent Reduction in Edema” value is −12* % and the inhibition in vivo at up to 20 mg/kg was found to be 13%. Also, in the assay on erythropoietin (EPO) [2], the “EPO Fold Increase” value came to 2.23 and the EPO came out at 42.2 mIU/ml. For the same compound, in assay [3], the “VEGF Fold Increase” value came out at 3.9 and the VEGF was 5698 pg/mL. For the same compound, in the assay with erythropoietin (EPO) [4], the “Fold Increase Over Control” value was 14.9 and the EPO was 35.3 mIU/ml. Moreover, in the assay on VEGF, the fold induction at 20 mg/kg is 1.12 and the VEGF is 47 pg/mL.

For `Cc1nc2ccc(Oc3ccc4c(O)c(C(=O)NCC(=O)O)nc(C)c4c3)cc2o1` [Compound AF, {[4-Hydroxy-1-methyl-7-(2-methyl-benzooxazol-6-yloxy)-isoquinoline-3-carbonyl]-amino}-acetic acid], in the assay on erythropoietin, the fold induction at 20 mg/kg is 21.3 and the EPO turned out to be 192 pg/mL. Moreover, the inhibition in vivo at up to 20 mg/kg in assay [1] (compound given 0 hr) was found to be 21%. In the assay with erythropoietin (EPO) [2], the “EPO Fold Increase” value is recorded as 12.24 and the EPO is listed as 231.3 mIU/ml. In assay [3], the “VEGF Fold Increase” value was determined as 3.5 and the VEGF was 5124 pg/mL. Moreover, in the assay with erythropoietin (EPO) [4], the “Fold Increase Over Control” value was 15.3 and the EPO was found to be 101.6 mIU/ml. In addition, in the assay with VEGF, the fold induction at 20 mg/kg was 2.83 and the VEGF was found to be 82 pg/mL.

On to `N#Cc1nc(C(=O)NCC(=O)O)c(O)c2c(Oc3ccccc3)cccc12` [Compound AM, [(1-Cyano-4-hydroxy-5-phenoxy-isoquinoline-3-carbonyl)-amino]-acetic acid], for which, in the assay on erythropoietin, the fold induction at 20 mg/kg was found to be 235 and the EPO amounted to 28206 pg/mL. In addition, the inhibition in vivo at up to 20 mg/kg in assay [1] (setting [5]) was 71%. Moreover, in the assay with erythropoietin (EPO) [2], the “EPO Fold Increase” value is reported as 6.25 and the EPO is listed as 118.07 mIU/ml. In assay [3], the “VEGF Fold Increase” value amounted to 4.0 and the VEGF is 5825 pg/mL. In the assay with erythropoietin (EPO) [4], the “Fold Increase Over Control” value stood at 8.2 and the EPO is 44.3 mIU/ml. In the assay with VEGF, the fold induction at 20 mg/kg was found to be 0.38 and the VEGF stood at 24 pg/mL.

With `N#Cc1nc(C(=O)NCC(=O)O)c(O)c2ccc(Oc3ccc(F)cc3)cc12` [Compound R, {[1-Cyano-7-(4-fluoro-phenoxy)-4-hydroxy-isoquinoline-3-carbonyl]-amino}-acetic acid], in the assay with erythropoietin, the fold induction at 20 mg/kg turned out to be 52.4 and the EPO was determined as 555.5 pg/mL. In assay [1] (compound given 0 hr), the inhibition in vivo at up to 20 mg/kg worked out at 32%. In the assay on erythropoietin (EPO) [2], the “EPO Fold Increase” value came out at 19.71 and the EPO stood at 372.6 mIU/ml. In addition, in assay [3], the “VEGF Fold Increase” value is recorded as 7.4 and the VEGF came to 2735 pg/mL. In addition, in the assay with erythropoietin (EPO) [4], the “Fold Increase Over Control” value was found to be 25.3 and the EPO was found to be 49.1 mIU/ml. For the same compound, in the assay on VEGF, the fold induction at 20 mg/kg stood at 1.38 and the VEGF is 54 pg/mL.

For `Cc1nc(C(=O)NCC(=O)O)c(O)c2cc(-c3ccc(F)cc3)sc12` [Compound P, {[2-(4-Fluoro-phenyl)-4-hydroxy-7-methyl-thieno[2,3-c]pyridine-5-carbonyl]-amino}-acetic acid], in the assay on erythropoietin, the fold induction at 20 mg/kg was determined as 5.88 and the EPO was found to be 62.3 pg/mL. Moreover, in assay [1] (compound given 0 hr), the inhibition in vivo at up to 20 mg/kg is 37%. In the assay with erythropoietin (EPO) [2], the “EPO Fold Increase” value is listed as 13.90 and the EPO turned out to be 262.8 mIU/ml. In assay [3], the “VEGF Fold Increase” value came out at 5.1 and the VEGF is 7453 pg/mL. In the assay with erythropoietin (EPO) [4], the “Fold Increase Over Control” value is 7.2 and the EPO stood at 54.9 mIU/ml. In addition, in the assay with VEGF, the fold induction at 20 mg/kg was found to be 1.15 and the VEGF stood at 45 pg/mL.

`Cc1nc2ccc(Oc3ccc4c(O)c(C(=O)NCC(=O)O)ncc4c3)cc2o1` [Compound N, {[4-Hydroxy-7-(2-methyl-benzooxazol-6-yloxy)-isoquinoline-3-carbonyl]-amino}-acetic acid]: in the assay on erythropoietin, the fold induction at 20 mg/kg was determined as 70.2 and the EPO came out at 63.2 pg/mL. Besides, the inhibition in vivo at up to 20 mg/kg in assay [1] (compound given 0 hr) worked out at 46%. In addition, in the assay with erythropoietin (EPO) [2], the “EPO Fold Increase” value was 14.52 and the EPO is reported as 380.5 mIU/ml. For the same compound, in assay [3], the “VEGF Fold Increase” value came to 4.6 and the VEGF stood at 6316 pg/mL. Further, in the assay with erythropoietin (EPO) [4], the “Fold Increase Over Control” value was 13.5 and the EPO is on record as 89.9 mIU/ml. For the same compound, in the assay with VEGF, the fold induction at 20 mg/kg was determined as 2.28 and the VEGF worked out at 66 pg/mL.

With `N#Cc1nc(C(=O)NCC(=O)O)c(O)c2cc(Oc3ccc4c(c3)OCO4)ccc12` [Compound AN, {[6-(Benzo[1,3]dioxol-5-yloxy)-1-cyano-4-hydroxy-isoquinoline-3-carbonyl]-amino}-acetic acid], in the assay on erythropoietin, the fold induction at 20 mg/kg was determined as 26.2 and the EPO was found to be 14964 pg/mL. For the same compound, the inhibition in vivo at up to 20 mg/kg in assay [1] (setting [5]) stood at 46%. Also, in the assay on erythropoietin (EPO) [2], the “EPO Fold Increase” value stood at 13.28 and the EPO is recorded as 251 mIU/ml. Further, in assay [3], the “VEGF Fold Increase” value came to 5.3 and the VEGF was 7252 pg/mL. In the assay with erythropoietin (EPO) [4], the “Fold Increase Over Control” value is listed as 16.2 and the EPO stood at 42.8 mIU/ml. Besides, in the assay with VEGF, the fold induction at 20 mg/kg is 1.05 and the VEGF is 39 pg/mL.

For the origin of these results see patent US9775902B2, “Compounds and methods for treatment of stroke” (FIBROGEN, INC, priority 2006, dated 2017).
